# US20250339409A1, “USES OF PAN BET INHIBITORS” (VYNE THERAPEUTICS INC., priority 2021, published 2025)
# Values joined by “and” are separate entries in the source; they are usually repeats but may differ in a detail not shown here. Equal entries are not always repeated.
# Tests used:
# [1] = test system: back skin of healthy mice; assay: Tolerance assessment of BETi1 0.01% and 1.0% in healthy (non-induced) mice; type: in vivo; conditions: for Modified PASI Mean score values / PASI Mean score values: female, Balb/c
# Experimental: Thirty-six (36) female Balb/c mice are weighed and randomly divided into 9 groups (n=4) according to body weight on D1. For mice of native group 1 and tolerance groups 8 and 9, no induction of psoriasis is performed between D1 and D13. Psoriasis is induced in groups 2 to 7 by once daily topical application for 13 days (from day 1 to day 13) of 65 mg of Aldara™ cream (5.0% imiquimod) onto the shaved and epilated back of mice. Before the first treatment, a second randomization of mice of the 6 imiquimod-induced psoriasis groups is performed according to the severity of psoriasis (PASI), and also the body weight of mice. Starting on day 7 and until day 13, 100 mg of test formulations […] and 65 mg of vehicle (groups 1 and […]) are topically administered once daily for 7 consecutive days onto the shaved back skin of mice. Several measurements are taken during treatment period from day 7 to day 14: psoriasis index (PASI), body weight, use of enrichment and mortality. At the end of treatment period, TEWL is assessed, and blood and skin samples are collected. Histological analysis of skin samples is used for microscopic scoring of psoriasis and the determination of the thickness of parakeratosis and epidermis and blood analysis is used for assessing the level of proinflammatory biomarkers (cytokines assays). The effect of treatment of psoriasis induced mice with BETi formulations at the four dose levels are compared with Dermoval® cream containing 0.05% clobetasol propionate (reference) and vehicle (positive control) and also with healthy mice treated with vehicle (negative control).
# The tolerance assessment to treatments with 0.01% and 1.0% BETi is performed daily during the treatment period (D7 to D13) as well as on the day mice are sacrifice (D14), and takes into account the following 5 parameters:
# The presence of erythema on the skin with the following scoring grid: • 0=no or no more erythema on the skin, • 1=weak erythema on the skin, • 2=moderate erythema on the skin, • 3=important erythema on the skin, • 4=severe erythema on the skin.
# The presence of induration of the skin with the following scoring grid: • 0=no or no more induration of the skin, • 1=weak induration of the skin, • 2=moderate induration of the skin, • 3=important induration of the skin, • 4=severe induration of the skin.
# The presence of ulceration of the skin with the following scoring grid: • 0=no or no more ulceration of the skin, • 1=weak ulceration of the skin, • 2=moderate ulceration of the skin, • 3=important ulceration of the skin, • 4=severe ulceration of the skin.
# The presence of necrosis of the skin with the following scoring grid: • 0=no or no more necrosis of the skin, • 1=weak necrosis of the skin, • 2=moderate necrosis of the skin, • 3=important necrosis of the skin, • 4=severe necrosis of the skin.
# The presence of peeling of the skin with the following scoring grid: • 0=no or no more peeling of the skin, • 1=weak peeling of the skin, • 2=moderate peeling of the skin, • 3=important peeling of the skin, • 4=severe peeling of the skin.
# The investigation addressed, amongst other things, the effect of the different BETi1 concentrations (0.001%, 0.01%, 0.1% and 1.0%) on various parameters. Tolerance was tested at two BETi1 concentrations (0.01% and 1%) in healthy mice.
# hydroxyproline = assay: Bleomycin mice: hydroxyproline content of lung tissue (colorimetric assay); type: in vivo, C57BL/6 male mice; conditions: for Mean Diff., Hydroxyproline Level of Lung, Group 2 Bleo/Veh vs. BETi1 group: One Way ANOVA, Dunnett's; for Mean Diff., Hydroxyproline Level of Lung, Group 2 Bleo/Veh vs. BETi1 group / Mean 2 (group mean), Hydroxyproline Level of Lung: in µg/mg
# Experimental: The left lobe of lung tissue is collected, and snap frozen for hydroxyproline levels analysis. Hydroxyproline (4-hydroxyproline, Hyp) is a common nonproteinogenic amino acid. Hydroxyproline in tissue hydrolysates is an indirect measure of the amount of collagen present. Hydroxyproline content of lung tissue is measured by colorimetric assay.
smiles,measurement,setting,value
Cn1cc(-c2cccc(O)c2Oc2ccccc2)c2cc[nH]c2c1=O [BETi1],"Body weight, individual mouse","[1]; Tolerance, healthy mice, D 1, listed as BETi1 1.0%",18.49
same,Mean body weights,"[1]; Tolerance, healthy mice, D 11, listed as BETi1 1.0%",18.97
same,"Body weight, individual mouse","[1]; Tolerance, healthy mice, D 14, listed as BETi1 1.0%",19.58
same,Modified PASI Mean score values,"[1]; mouse, in vivo",0.00
same,Modified PASI Mean score values,"[1]; mouse, in vivo, 1 study day",0.00
same,PASI Mean score values,"[1]; mouse, in vivo, 2 study day",0.00
same,PASI Mean score values,"[1]; mouse, in vivo, 3 study day",0.00
same,PASI Mean score values,"[1]; mouse, in vivo, 4 study day",0.00
same,PASI Mean score values,"[1]; mouse, in vivo, 5 study day",0.00
same,PASI Mean score values,"[1]; mouse, in vivo, 6 study day",0.00
same,PASI Mean score values,"[1]; mouse, in vivo, 7 study day",0.00
same,PASI Mean score values,"[1]; mouse, in vivo, 8 study day",0.00
same,Modified PASI Mean score values,"[1]; mouse, in vivo, 9 study day",0.00
same,PASI Mean score values,"[1]; mouse, in vivo, 9 study day",0.00
same,Modified PASI Mean score values,"[1]; mouse, in vivo, 10 study day",0.00
same,PASI Mean score values,"[1]; mouse, in vivo, 10 study day",0.00
same,Modified PASI Mean score values,"[1]; mouse, in vivo, 11 study day",0.00
same,PASI Mean score values,"[1]; mouse, in vivo, 11 study day",0.00
same,Modified PASI Mean score values,"[1]; mouse, in vivo, 12 study day",0.00
same,PASI Mean score values,"[1]; mouse, in vivo, 12 study day",0.00
same,Modified PASI Mean score values,"[1]; mouse, in vivo, 13 study day",0.00
same,PASI Mean score values,"[1]; mouse, in vivo, 13 study day",0.00
same,Modified PASI Mean score values,"[1]; mouse, in vivo, 14 study day",0.00
same,PASI Mean score values,"[1]; mouse, in vivo, 14 study day",0.00
same,local skin reaction to treatment,"[1]; mouse, in vivo",did not experience any noticeable local skin reaction
same,reduction in hydroxyproline levels,hydroxyproline; 3 mg/mL (group 5),statistically significant compared to treatment with vehicle
same,hydroxyproline levels,"hydroxyproline; 0.06, 0.6 and 3 mg/mL, vs bleomycin and vehicle",demonstrated a decrease in hydroxyproline levels
same,"Hydroxyproline Level of Lung, Mean",hydroxyproline; Group 3 Bleo/BETi1 0.06 mg/mL,0.2248 μg/mg tissue
same,"Hydroxyproline Level of Lung, individual animals",hydroxyproline; Group 3 Bleo/BETi1 0.06 mg/mL,0.1154 μg/mg tissue and 0.2842 μg/mg tissue and 0.3149 μg/mg tissue and 0.2968 μg/mg tissue and 0.3372 μg/mg tissue and 0.1322 μg/mg tissue and 0.1196 μg/mg tissue and 0.1977 μg/mg tissue
same,"Mean Diff., Hydroxyproline Level of Lung, Group 2 Bleo/Veh vs. BETi1 group",hydroxyproline; Group 3 Bleo/BETi1 0.06 mg/mL,0.08927
same,"Mean 2 (group mean), Hydroxyproline Level of Lung",hydroxyproline; Group 3 Bleo/BETi1 0.06 mg/mL,0.2248
same,"Hydroxyproline Level of Lung, Mean",hydroxyproline; Group 4 Bleo/BETi1 0.6 mg/mL,0.2535 μg/mg tissue
same,"Hydroxyproline Level of Lung, individual animals",hydroxyproline; Group 4 Bleo/BETi1 0.6 mg/mL,0.1377 μg/mg tissue and 0.3400 μg/mg tissue and 0.2954 μg/mg tissue and 0.1503 μg/mg tissue and 0.2745 μg/mg tissue and 0.3191 μg/mg tissue and 0.2242 μg/mg tissue and 0.2703 μg/mg tissue and 0.1029 μg/mg tissue and 0.2298 μg/mg tissue and 0.3121 μg/mg tissue and 0.2982 μg/mg tissue and 0.3414 μg/mg tissue
same,"Mean Diff., Hydroxyproline Level of Lung, Group 2 Bleo/Veh vs. BETi1 group",hydroxyproline; Group 4 Bleo/BETi1 0.6 mg/mL,0.0605
same,"Mean 2 (group mean), Hydroxyproline Level of Lung",hydroxyproline; Group 4 Bleo/BETi1 0.6 mg/mL,0.2535
same,"Hydroxyproline Level of Lung, Mean",hydroxyproline; Group 5 Bleo/BETi1 3 mg/mL,0.2003 μg/mg tissue
same,"Hydroxyproline Level of Lung, individual animals",hydroxyproline; Group 5 Bleo/BETi1 3 mg/mL,0.1935 μg/mg tissue and 0.0596 μg/mg tissue and 0.2200 μg/mg tissue and 0.2800 μg/mg tissue and 0.2731 μg/mg tissue and 0.1308 μg/mg tissue and 0.2466 μg/mg tissue and 0.1112 μg/mg tissue and 0.3107 μg/mg tissue and 0.2382 μg/mg tissue and 0.3024 μg/mg tissue and 0.1349 μg/mg tissue and 0.1029 μg/mg tissue
same,"Mean Diff., Hydroxyproline Level of Lung, Group 2 Bleo/Veh vs. BETi1 group",hydroxyproline; Group 5 Bleo/BETi1 3 mg/mL,0.1137
same,"Mean 2 (group mean), Hydroxyproline Level of Lung",hydroxyproline; Group 5 Bleo/BETi1 3 mg/mL,0.2003
